Values of other authors in patent US9161929B2, “Solvent cast film sustained release latanoprost implant” (ALLERGAN, INC., priority 2011, dated 2015).

## CC(C)OC(=O)CCC/C=C\C[C@@H]1[C@@H](CC[C@@H](O)CCc2ccccc2)[C@H](O)C[C@@H]1O [Latanoprost]
  solubility in acetone, ethanol, ethyl acetate, isopropanol, methanol and octanol: freely soluble
